Source: DBAASP
Converted amounts (≈) assume the structure as drawn. Values belong to the compound of their own block, whether it stands above or below them.

What was measured:
Test in all cases: ≥ marks a high value that may be exact or a test limit, other limits are often not marked, values filed in µg/mL are converted to µM
[1] = test system: Mannheimia haemolytica 82-25
[2] = test system: Klebsiella pneumoniae NCTC 13368
[3] = test system: Pseudomonas aeruginosa NCTC 13437
[4] = test system: Pseudomonas aeruginosa PAO1
[5] = test system: Acinetobacter baumannii ATCC 17987
[6] = test system: Acinetobacter baumannii AYE
[7] = test system: Staphylococcus aureus NCTC 9144
[8] = test system: Staphylococcus aureus 15
[9] = test system: Enterococcus faecalis NCTC 12204
[10] = test system: Pseudomonas syringae pv. tomato
[11] = test system: Xanthomonas axonopodis pv. phaseoli
[12] = test system: Enterococcus faecalis NCTC 775
[13] = test system: Escherichia coli NCTC 12923
[14] = test system: Enterococcus faecalis NCTC 12201
[15] = test system: Klebsiella pneumoniae M6
[16] = test system: Salmonella enterica subsp. enterica serovar Typhimurium C77-31
[17] = test system: Staphylococcus epidermidis ATCC 12228
[18] = test system: Lacticaseibacillus rhamnosus 7469
[19] = test system: Salmonella enterica subsp. enterica serovar Pullorum ATCC 7913
[20] = test system: Staphylococcus aureus ATCC 25923
[21] = test system: Salmonella enterica subsp. enterica serovar Typhimurium ATCC 14028
[22] = test system: Pseudomonas aeruginosa ATCC 27853
[23] = test system: Escherichia coli ATCC 25922
[24] = test system: Streptococcus thermophilus YM-C
[25] = test system: Streptococcus agalactiae
[26] = test system: Escherichia coli UB1005
[27] = test system: Escherichia coli 078
[28] = test system: Streptococcus agalactiae CICC 10465
[29] = test system: Staphylococcus aureus ATCC 29213
[30] = test system: Pseudomonas aeruginosa ATCC 47085
[31] = test system: Staphylococcus aureus ATCC 35556
[32] = test system: Acinetobacter baumannii ATCC 19606
[33] = test system: Escherichia coli D31 CGSC 5165
[34] = test system: Pasteurella multocida C48-3
[35] = test system: Salmonella enterica subsp. enterica serovar Choleraesuis C78-1
[36] = test system: Salmonella typhimurium SL1344
[37] = test system: Listeria monocytogenes CICC 21533
[38] = test system: Shigella flexneri CICC 21534
[39] = test system: Escherichia coli E44813
[40] = test system: Bacillus subtilis CICC 24434
[41] = test system: Staphylococcus epidermidis LY8
[42] = test system: Pseudomonas aeruginosa ATCC 9027
[43] = test system: Candida albicans FRR 5580
[44] = test system: Staphylococcus aureus

Structure (SMILES): C[C@H](N)C(=O)N[C@@H](C)C(=O)N[C@@H](CC(=O)O)C(=O)N[C@@H](CC(=O)O)C(=O)N[C@@H](CC(=O)O)C(=O)N[C@@H](CC(=O)O)C(=O)N[C@@H](CC(=O)O)C(=O)O [AADDDDD]
- MIC [1]: 30 µM (≈ 22.1 µg/mL)

- MIC [2]: ≥ 42 µM
- MIC [3]: ≥ 42 µM
- MIC [4]: > 42 µM
- MIC [5]: 5.24 µM (≈ 16 µg/mL)
- MIC [6]: 2.62 µM (≈ 8 µg/mL)
- MIC [7]: 5.24 µM (≈ 16 µg/mL)
- MIC [8]: ≥ 42 µM
- MIC [9]: ≥ 42 µM
- MIC [10]: 0.164 µM (≈ 0.5 µg/mL)
- MIC [11]: 0.164 µM (≈ 0.5 µg/mL)
- MIC [12]: ≥ 42 µM
- MIC [13]: 2.62 µM (≈ 8 µg/mL)
- MIC [14]: ≥ 42 µM
- MIC [15]: ≥ 42 µM
Structure (SMILES): CC[C@H](C)[C@H](NC(=O)[C@H](CCC(=O)O)NC(=O)[C@H](CC(N)=O)NC(=O)[C@H](CCCCN)NC(=O)[C@H](CC(C)C)NC(=O)[C@H](CCCCN)NC(=O)[C@H](CCCCN)NC(=O)[C@H](CCCN=C(N)N)NC(=O)[C@@H](NC(=O)[C@H](CCCCN)NC(=O)[C@H](CCC(=O)O)NC(=O)[C@H](CCCCN)NC(=O)[C@H](Cc1c[nH]c2ccccc12)NC(=O)[C@H](C)N)[C@@H](C)CC)C(=O)N[C@@H](CCCCN)C(=O)N[C@@H](CCCCN)C(=O)N[C@@H](CCCCN)C(=O)NCC(=O)N[C@@H](CCCN=C(N)N)C(=O)N[C@@H](CCCCN)C(=O)N[C@@H](C)C(=O)N[C@H](C(=O)N[C@H](C(=O)N[C@@H](C)C(=O)N[C@@H](Cc1c[nH]c2ccccc12)C(=O)O)[C@@H](C)CC)C(C)C [AWKEKIRKKLKNEIKKKGRKAVIAW]

- MIC [16]: ≥ 64 µM
- MIC [17]: > 64 µM
- MIC [18]: ≥ 64 µM
- MIC [19]: ≥ 64 µM
- MIC [20]: > 64 µM
- MIC [21]: > 64 µM
- MIC [22]: > 64 µM
- MIC [23]: > 64 µM
- MIC [24]: ≥ 64 µM
- MIC [25]: ≥ 64 µM
- MIC [26]: ≥ 64 µM
- MIC [27]: ≥ 64 µM
- MIC [28]: ≥ 64 µM
- MIC [29]: > 64 µM
Structure (SMILES): CC[C@H](C)[C@H](NC(=O)[C@H](CC(C)C)NC(=O)[C@@H](NC(=O)[C@@H](N)CC(=O)O)[C@@H](C)CC)C(=O)N[C@H](C(=O)N[C@H](C(=O)NCC(=O)NCC(N)=O)C(C)C)[C@@H](C)CC [DILIIVGG]

- MIC [30]: 15 µM (≈ 41.5 µg/mL)
- MIC [31]: 1.88 µM (≈ 5.2 µg/mL)
- MIC [32]: 0.94 µM (≈ 2.6 µg/mL)
- MIC [33]: 0.94 µM (≈ 2.6 µg/mL)
Structure (SMILES): CC[C@H](C)[C@H](NC(=O)[C@H](CCCN=C(N)N)NC(=O)CNC(=O)[C@H](CC(C)C)NC(=O)[C@@H](NC(=O)[C@H](C)NC(=O)[C@H](CCCN=C(N)N)NC(=O)CNC(=O)[C@H](C)NC(=O)CNC(=O)[C@H](CCCN=C(N)N)NC(=O)[C@H](CCSC)NC(=O)[C@H](CCCN=C(N)N)NC(=O)[C@@H](NC(=O)[C@H](Cc1c[nH]c2ccccc12)NC(=O)[C@H](CC(C)C)NC(=O)[C@H](CCC(=O)O)NC(=O)[C@H](CCCN=C(N)N)NC(=O)[C@H](CC(C)C)NC(=O)[C@@H](N)CC(C)C)[C@@H](C)O)C(C)C)C(=O)N[C@@H](CCCN=C(N)N)C(=O)NCC(=O)N[C@@H](CC(C)C)C(=O)N[C@@H](CC(C)C)C(=O)O [LLRELWTRMRGAGRAVLGRIRGLL]

- MIC [34]: 1.05 µM (≈ 3.12 µg/mL)
- MIC [36]: 0.524 µM (≈ 1.56 µg/mL)
- MIC [37]: ≥ 42 µM
- MIC [38]: 25.2 µM (≈ 75 µg/mL)
- MIC [39]: 4.2 µM (≈ 12.5 µg/mL)
- MIC [20]: 0.0084 µM (≈ 0.025 µg/mL)
- MIC [40]: 0.524 µM (≈ 1.56 µg/mL)
- MIC [41]: 8.4 µM (≈ 25 µg/mL)
Structure (SMILES): CC[C@H](C)[C@H](NC(=O)[C@@H](NC(=O)[C@H](Cc1ccccc1)NC(=O)[C@H](CCCCN)NC(=O)[C@@H]1CCCN1C(=O)[C@H](CCCCN)NC(=O)[C@H](CCC(N)=O)NC(=O)[C@@H]1CCCN1C(=O)[C@H](CCCN=C(N)N)NC(=O)[C@H](CCCN=C(N)N)NC(=O)[C@@H](NC(=O)[C@H](CCCN=C(N)N)NC(=O)[C@H](Cc1c[nH]c2ccccc12)NC(=O)[C@H](CC(C)C)NC(=O)[C@H](CC(C)C)NC(=O)[C@H](CC(=O)O)NC(=O)[C@@H](NC(=O)[C@@H](NC(=O)[C@@H](N)CCCN=C(N)N)[C@@H](C)CC)[C@@H](C)CC)C(C)C)C(C)C)C(=O)N[C@H](C(=O)N[C@@H](Cc1c[nH]c2ccccc12)C(=O)N[C@H](C(=O)N[C@@H](CCCN=C(N)N)C(=O)O)C(C)C)C(C)C [RIIDLLWRVRRPQKPKFVIVWVR]
- MIC [35]: 0.262 µM (≈ 0.78 µg/mL)

- MIC [42]: 7.46 µM (≈ 16 µg/mL)
- MIC [43]: 29.8 µM (≈ 64 µg/mL)
- MIC [44]: 5.28 µM (≈ 11.3 µg/mL)
- MIC [20]: 7.46 µM (≈ 16 µg/mL)
- MIC [23]: 7.46 µM (≈ 16 µg/mL)
Structure (SMILES): NCCCC[C@H](NC(=O)[C@H](Cc1c[nH]c2ccccc12)NC(=O)[C@H](Cc1c[nH]c2ccccc12)NC(=O)[C@H](CCCCN)NC(=O)[C@H](Cc1c[nH]c2ccccc12)NC(=O)[C@H](Cc1c[nH]c2ccccc12)NC(=O)[C@H](CCCN=C(N)N)NC(=O)[C@H](Cc1c[nH]c2ccccc12)NC(=O)[C@H](Cc1c[nH]c2ccccc12)NC(=O)[C@H](CCCN=C(N)N)NC(=O)[C@H](CCCCN)NC(=O)[C@@H](N)CCCN=C(N)N)C(=O)N[C@@H](CCCN=C(N)N)C(N)=O [RKRWWRWWKWWKR]
